Data: ChEMBL document CHEMBL3885861, “Open TG-GATES”

Species on record: Rattus norvegicus
Assay: Open TG-GATES - Regimen: Single
Assay type: toxicity, organism-based, Sprague-Dawley
Parameters: regimen Single, gender Male, age 6 weeks
Conditions: in vivo, po, 0 mg/kg, route gavage, dose level Control; for Bas / Eos / Fbg / Hb / Ht / Lym / MCH / MCHC / MCV / Mono / Neu / PT / Plat / RBC / Ret / WBC: tissue Blood; for KIDNEY_L / KIDNEY_R / KIDNEY_TOTAL: tissue Kidney; for LIVER: tissue Liver; for ALP / ALT / AST / BUN / CRE / Ca / Cl / DBIL / GLC / IP / K / LDH / Na / PL / RALB / TBIL / TC / TG / TP / gamma-GTP: tissue Plasma

For `CN(C)CCCN1c2ccccc2Sc2ccc(Cl)cc21` [CHLORPROMAZINE], the TERMINAL_BW (3 h) was 223.8 g, the Bas (3 h) was 0% and the Eos (3 h) was 1.2%. The Fbg (3 h) was 223.6 mg/dL, the Hb (3 h) was 13.7 g/dL and the Ht (3 h) was 39.3%. It also gave a Lym (3 h) of 76%, an MCH (3 h) of 21.8 pg and an MCHC (3 h) of 34.7%. For the same molecule, the MCV (3 h) was 62.7 fL, the Mono (3 h) was 2.6% and the Neu (3 h) was 18.8%. It also gave a PT (3 h) of 12.5 s, a Plat (3 h) of 116.1 x10_4/uL and an RBC (3 h) of 627.6 x10_4/ul. The Ret (3 h) was 7.6%, the WBC (3 h) was 91.8 x10_2/uL and the KIDNEY_L (3 h) was 1 g. For the same molecule, the KIDNEY_R (3 h) was 1 g, the KIDNEY_TOTAL (3 h) was 2 g and the LIVER (3 h) was 10 g. For the same molecule, the ALP (3 h) was 1021.8 IU/L, the ALT (3 h) was 37.6 IU/L and the AST (3 h) was 78.8 IU/L. For the same molecule, the BUN (3 h) was 12.2 mg/dL, the CRE (3 h) was 0.4 mg/dL and the Ca (3 h) was 10.8 mg/dL. It also gave a Cl (3 h) of 103.2 meq/L, a DBIL (3 h) of 0.064 mg/dL and a GLC (3 h) of 190 mg/dL. For the same molecule, the IP (3 h) was 8.5 mg/dL, the K (3 h) was 4 meq/L and the LDH (3 h) was 227.2 IU/L. The Na (3 h) was 141.6 meq/L, the PL (3 h) was 131.8 mg/dL and the RALB (3 h) was 3.5 g/dL. For the same molecule, the TBIL (3 h) was 0.1 mg/dL, the TC (3 h) was 67.6 mg/dL and the TG (3 h) was 62.6 mg/dL. It also gave a TP (3 h) of 5.5 g/dL, a gamma-GTP (3 h) of 1 IU/L and a TERMINAL_BW (6 h) of 217.9 g. It also gave a Bas (6 h) of 0%, an Eos (6 h) of 1% and a Fbg (6 h) of 227.4 mg/dL. It also gave a Hb (6 h) of 13.4 g/dL, a Ht (6 h) of 38.8% and a Lym (6 h) of 77.2%. The MCH (6 h) was 21.1 pg, the MCHC (6 h) was 34.5% and the MCV (6 h) was 61.2 fL. It also gave a Mono (6 h) of 2.8%, a Neu (6 h) of 17.4% and a PT (6 h) of 12.5 s. The Plat (6 h) was 113.2 x10_4/uL, the RBC (6 h) was 634 x10_4/ul and the Ret (6 h) was 7.6%. For the same molecule, the WBC (6 h) was 104.6 x10_2/uL, the KIDNEY_L (6 h) was 1 g and the KIDNEY_R (6 h) was 1 g. For the same molecule, the KIDNEY_TOTAL (6 h) was 1.9 g, the LIVER (6 h) was 9.2 g and the ALP (6 h) was 816 IU/L. It also gave an ALT (6 h) of 33.6 IU/L, an AST (6 h) of 79.8 IU/L and a BUN (6 h) of 9 mg/dL. It also gave a CRE (6 h) of 0.4 mg/dL, a Ca (6 h) of 10.7 mg/dL and a Cl (6 h) of 103.4 meq/L. It also gave a DBIL (6 h) of 0.066 mg/dL, a GLC (6 h) of 190 mg/dL and an IP (6 h) of 9.4 mg/dL. For the same molecule, the K (6 h) was 3.9 meq/L, the LDH (6 h) was 221.2 IU/L and the Na (6 h) was 141.8 meq/L. For the same molecule, the PL (6 h) was 133.6 mg/dL, the RALB (6 h) was 3.4 g/dL and the TBIL (6 h) was 0.1 mg/dL. The TC (6 h) was 75.8 mg/dL, the TG (6 h) was 56.2 mg/dL and the TP (6 h) was 5.4 g/dL. The gamma-GTP (6 h) was 0.8 IU/L, the TERMINAL_BW (9 h) was 219.8 g and the Bas (9 h) was 0.4%. For the same molecule, the Eos (9 h) was 0.6%, the Fbg (9 h) was 227 mg/dL and the Hb (9 h) was 13.2 g/dL. It also gave a Ht (9 h) of 38.2%, a Lym (9 h) of 78.8% and an MCH (9 h) of 21.7 pg. It also gave an MCHC (9 h) of 34.5%, an MCV (9 h) of 63 fL and a Mono (9 h) of 2.6%. It also gave a Neu (9 h) of 16.6%, a PT (9 h) of 12.6 s and a Plat (9 h) of 122.8 x10_4/uL. It also gave an RBC (9 h) of 606.2 x10_4/ul, a Ret (9 h) of 8.3% and a WBC (9 h) of 82.3 x10_2/uL. For the same molecule, the KIDNEY_L (9 h) was 1 g, the KIDNEY_R (9 h) was 1 g and the KIDNEY_TOTAL (9 h) was 2 g. It also gave an LIVER (9 h) of 9 g, an ALP (9 h) of 922.2 IU/L and an ALT (9 h) of 30.6 IU/L. The AST (9 h) was 68 IU/L, the BUN (9 h) was 11.4 mg/dL and the CRE (9 h) was 0.4 mg/dL. The Ca (9 h) was 10.7 mg/dL, the Cl (9 h) was 104 meq/L and the DBIL (9 h) was 0.066 mg/dL. The GLC (9 h) was 203.4 mg/dL, the IP (9 h) was 10.2 mg/dL and the K (9 h) was 3.8 meq/L. The LDH (9 h) was 180.2 IU/L, the Na (9 h) was 141.8 meq/L and the PL (9 h) was 132.6 mg/dL. The RALB (9 h) was 3.3 g/dL, the TBIL (9 h) was 0.1 mg/dL and the TC (9 h) was 69.8 mg/dL. The TG (9 h) was 59.2 mg/dL, the TP (9 h) was 5.4 g/dL and the gamma-GTP (9 h) was 1 IU/L.
